Measurements taken from PubChem BioAssay (NCI).
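Following 48 hours of exposure in 96-well plates, responses at five concentrations were used to interpolate endpoints linearly. GI50 marks 50% less growth. At the TGI there is no net growth.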

Assays:
Test in all cases: NCI-60 cell line screen, 48 h
SK-MEL-28 melanoma = test system: SK-MEL-28 melanoma
MOLT-4 leukemia = test system: MOLT-4 leukemia
HCC-2998 colon = test system: HCC-2998 colon
SK-MEL-5 melanoma = test system: SK-MEL-5 melanoma
OVCAR-5 ovarian = test system: OVCAR-5 ovarian
M14 melanoma = test system: M14 melanoma
786-0 renal = test system: 786-0 renal
SF-539 CNS = test system: SF-539 CNS
U251 CNS = test system: U251 CNS
T-47D breast = test system: T-47D breast

Row | Compound | TGI (SK-MEL-28 melanoma) [µM] | TGI (MOLT-4 leukemia) [µM] | TGI (HCC-2998 colon) [µM] | TGI (SK-MEL-5 melanoma) [µM] | TGI (OVCAR-5 ovarian) [µM] | TGI (M14 melanoma) [µM] | TGI (786-0 renal) [µM] | TGI (SF-539 CNS) [µM] | TGI (U251 CNS) [µM] | GI50 (T-47D breast) [µM] | TGI (T-47D breast) [µM] | GI50 (SK-MEL-28 melanoma) [µM] | GI50 (MOLT-4 leukemia) [µM] | GI50 (SK-MEL-5 melanoma) [µM] | GI50 (M14 melanoma) [µM] | GI50 (786-0 renal) [µM] | GI50 (U251 CNS) [µM] | GI50 (OVCAR-5 ovarian) [µM] | GI50 (SF-539 CNS) [µM] | GI50 (HCC-2998 colon) [µM]
1 | CC(C)OCN1COCN=C1NC#N | > 100 | > 100 | > 100 | > 100 | > 100 | > 100 | > 100 | > 100 | > 100 |  |  |  |  |  |  |  |  |  |  | 
2 | COC(=O)/C(=C/N1CCN(C(=O)c2ccco2)C1=S)C(C)=O | 52.6 | > 100 |  | 17.4 |  | 24.4 | 27.7 |  | 23.1 | 6.02 | 29.8 | 9.08 | 20.8 | 5.26 | 10.7 | 11.2 | 5.53 |  |  | 
3 | C=C(C)C1CC[C@]2(C(=O)O)CCC3(C)[C@H](CCC4[C@@]5(C)CC[C@H](OC6OC(CO)C(O)C6OC6OC(C)C(O)C(O)C6O)[C@@](C)(CO)C5CC[C@]43C)C12 (some centres not stated) | > 100 | > 100 | > 100 | > 100 | > 100 | > 100 | > 100 | > 100 | > 100 |  |  |  |  |  |  |  |  |  |  | 
4 | O=c1cccc(C#CCCCCOC2CCCO2)o1 (configuration not stated) | > 56.8 | > 30.8 |  | > 16.4 | > 41.2 | > 27.9 | 23.6 | > 36.6 | > 70.1 | 22.7 | > 48.8 | 23.9 | 8.06 | 7.47 | 9.49 | 4.03 | 28.8 | 19.7 | 4.75 | 
5 | CC(NC1CCC[C@H]1O)c1ccccc1 (mixture of isomers) | > 100 | > 100 | > 100 | > 100 |  | > 100 | > 100 | > 100 | > 100 |  |  |  |  |  |  |  |  |  |  | 
6 | CN/N=C(\C)CC(=O)Nc1cccc(Cl)c1C | > 100 | > 100 | > 100 | > 100 | > 100 | > 100 | > 100 | > 100 | > 100 |  |  |  |  |  |  |  |  |  |  | 
7 | COCCN1C2=CCCCC2=Nc2c(N)nc(N)nc21 | > 100 | > 100 | > 100 | > 100 | > 100 | > 100 | > 100 | > 100 | > 100 |  |  |  |  |  |  |  |  |  |  | 
8 | O=C(O)C1Cc2nc[nH]c2CN1 (configuration not stated) | > 100 | > 100 | > 100 | > 100 | > 100 | > 100 | > 100 | > 100 | > 100 |  |  |  |  |  |  |  |  |  |  | 
9 | O=C1C=C(Br)C(=O)C(Br)=C1 | > 100 | > 86.2 | > 100 | > 100 | > 100 | > 100 | > 100 | > 100 | > 100 |  |  |  |  |  |  |  |  |  |  | 
10 | Cc1cccc(NC(=O)CC2C(=O)Nc3ccccc3S2(=O)=O)c1C (configuration not stated) | > 100 | > 100 | > 100 | 74.1 | > 100 | > 100 | 76.1 | 37.6 | 78.1 |  |  |  |  |  |  |  |  |  |  | 
11 | COc1ccc(-c2c(N)[n+]([O-])c3cc(C)c(C)cc3[n+]2[O-])cc1OC | > 100 | > 100 | > 100 | 74.3 | > 100 | > 100 | > 100 | > 100 | > 100 |  |  |  |  |  |  |  |  |  |  | 
12 | COc1cc(C2C(C(=O)O)=C(C)Oc3cc4c(cc32)OCO4)cc(OC)c1OC (configuration not stated) | > 100 | > 100 |  | > 100 |  | > 100 | > 100 |  | > 100 |  |  |  |  |  |  |  |  |  |  | 
13 | O=C1c2cccc3c(N4CCN(c5ccc6c7c(cccc57)C(=O)N(CCN5CCNCC5)C6=O)CC4)ccc(c23)C(=O)N1CCN1CCNCC1 | 34.4 |  | 20.9 | 53.4 | 34.1 | 37.2 | 4.32 | 34.1 | 35.7 | > 100 | > 100 | 17.1 |  | 16.1 | 15 | 1.84 | 16.8 | 15.1 | 13 | 5.63
14 | CCCCCN(CCCCC)C(=O)[C@@H](CCC(=O)OCc1ccccc1)NC(=O)c1cc2ccccc2[nH]1 | > 100 |  | > 100 |  | > 100 | > 100 | > 100 | > 100 | > 100 |  |  |  |  |  |  |  |  |  |  | 
15 | Fc1cccc(F)c1C1SCc2nc3ccccc3n21 (configuration not stated) |  | > 100 | > 100 | 75.4 | > 100 | > 100 | > 100 | > 100 | > 100 |  |  |  |  |  |  |  |  |  |  | 
16 | O=C1/C(=C\c2ccccc2)c2ccccc2N1Cc1ccccc1 | 15.7 | 5.4 | 16.4 | 15.8 | 15.2 | 23.9 | 23 |  | 15.2 |  | 15.1 |  |  |  |  |  |  |  |  | 
17 | COC(=O)C(C(=O)C(=O)Nc1ccccc1OC)c1csc(-n2nc(-c3ccccc3)cc2-c2ccccc2)n1 (configuration not stated) |  | > 100 | > 100 |  | > 100 | > 100 | > 100 |  | > 100 |  |  |  |  |  |  |  |  |  |  | 
18 | NC(C(=O)O)C(N)C(=O)O (configuration not stated) | > 100 | > 100 |  | > 100 | > 100 | > 100 | > 100 | > 100 | > 100 |  | > 100 |  |  |  |  |  |  |  |  | 
19 | N#Cc1cccc(Nc2nccc(-c3cnn4ncccc34)n2)c1 | 0.0125 |  | 0.0241 | 0.018 | > 25 | 0.0125 | > 25 | 0.0154 | > 25 | 0.0182 | 0.219 | 0.00408 |  | 0.00618 | 0.00525 | 0.00608 | 0.00552 | 0.00823 | 0.00381 | 0.00695
20 | COc1ccc(OC)c(CCc2cc(OC)c(OC)cc2C)c1 | > 100 | > 100 | > 100 | > 100 | > 100 | > 100 | > 100 |  | > 100 |  |  |  |  |  |  |  |  |  |  | 
21 | CC1CC(=O)C(C(O)CC2CC(=O)N(c3ccccc3)C(=O)C2)C(C)C1 (configuration not stated) | > 100 | > 100 | > 100 |  | > 100 | > 100 | > 100 | > 100 | > 100 |  |  |  |  |  |  |  |  |  |  | 
22 | N#Cc1c(NC(=O)CCC(=O)O)ccc2ccccc12 | > 100 |  |  | > 100 | > 100 | > 100 | > 100 | > 100 | > 100 |  | > 100 |  |  |  |  |  |  |  |  | 
